The values below come from patent publication US20250163104A1, “MACROCYCLIC IMMUNOMODULATORS” (priority 2021, published 2025).

The assay deals with T1, human PD-1 / PD-L1-Ig binding on Jurkat cell line over-expressing human PD-1 (Jurkat-PD-1) (Homo sapiens, UniProt Q15116).
T1 construct: expressed in transfected cells; host or cells: Jurkat
Kind of assay: Jurkat-PD-1 Cell Binding High-Content Screening Assay (CBA). The format is cell-based. As to conditions: PE-labeled PD-L1-Ig 20 nM final. The essentials: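 Binding of fluorescent PD-L1-Ig (phycoerythrin linked via the Ig tag, 20 nM final) to PD-1-overexpressing Jurkat cells was imaged after a 2 h, 37° C compound pretreatment and 1 hour ligand incubation.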

Setting [1] is: Jurkat-PD-1 cells, read-out: Jurkat HPD1_PDL1 IC50.

Read-outs that look alike come from different tables or passages of the source. Where a SMILES comes first, the peptide text is derived from it. Bridges are numbered along the chain shown (N, C = ends). [ ]: non-standard residue; d: D form. The star is where a group is joined. ξ: configuration not given here. Phe(4-COOH) = N[C@@H](Cc1ccc(C(=O)O)cc1)C(=O)O; Phe(4-CH2NH2) = NCc1ccc(C[C@H](N)C(=O)O)cc1; Bip = N[C@@H](Cc1ccc(-c2ccccc2)cc1)C(=O)O; Phe(3-F) = N[C@@H](Cc1cccc(F)c1)C(=O)O; Phe(3-Me) = Cc1cccc(C[C@H](N)C(=O)O)c1; 1Nal = N[C@@H](Cc1cccc2ccccc12)C(=O)O; Val(3-OH) = CC(C)(O)[C@H](N)C(=O)O; Aha = [N-]=[N+]=NCC[C@H](N)C(=O)O; 4Pal = N[C@@H](Cc1ccncc1)C(=O)O; Cha = N[C@@H](CC1CCCCC1)C(=O)O; Cit = NC(=O)NCCC[C@H](N)C(=O)O; Ile(3ξ) = CCC(C)[C@H](N)C(=O)O; dCha = N[C@H](CC1CCCCC1)C(=O)O; Thr(3ξ) = CC(O)[C@H](N)C(=O)O; Carboxymethyl = O=C(O)C*; Nle = CCCC[C@H](N)C(=O)O; Orn = NCCC[C@H](N)C(=O)O; Pra = C#CC[C@H](N)C(=O)O; Dab = NCC[C@H](N)C(=O)O; Dap = NC[C@H](N)C(=O)O; Propargyl = C#CC*

T1 sequence (Q15116 25-288): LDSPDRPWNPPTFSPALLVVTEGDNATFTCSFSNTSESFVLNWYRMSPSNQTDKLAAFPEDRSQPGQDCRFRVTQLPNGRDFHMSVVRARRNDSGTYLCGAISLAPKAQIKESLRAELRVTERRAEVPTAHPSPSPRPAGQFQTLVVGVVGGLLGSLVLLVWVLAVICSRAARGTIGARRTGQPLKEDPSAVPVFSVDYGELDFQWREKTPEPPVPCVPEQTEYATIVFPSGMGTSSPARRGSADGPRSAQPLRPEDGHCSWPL

In the case of `CC[C@H](C)[C@@H]1NC(=O)[C@H](Cc2ccc(-c3ccccc3)cc2)NC(=O)[C@H](C(C)C)NC(=O)[C@H](Cc2cccc(C)c2)NC(=O)[C@H](CC(=O)O)NC(=O)[C@H](Cc2ccc(C(=O)O)cc2)NC(=O)[C@H](Cc2ccncc2)NC(=O)CSC[C@@H](C(=O)N[C@@H](CCN)C(N)=O)NC(=O)[C@H]([C@@H](C)O)NC(=O)[C@H](C(C)C)NC(=O)[C@H](CC2CCCCC2)NC(=O)[C@H](CCN)NC(=O)[C@@H](CC(C)C)NC(=O)[C@H](CCCN)NC1=O` [Compound 2007], under setting [1], the IC50 amounted to 24.3 nM. Same read-out and setting: next, `CCC(C)[C@@H]1NC(=O)[C@H](Cc2ccc(-c3ccccc3)cc2)NC(=O)[C@H](C(C)C)NC(=O)[C@H](Cc2c[nH]c3ccccc23)NC(=O)[C@H](CC(=O)O)NC(=O)[C@H](Cc2ccc(O)cc2)NC(=O)[C@H](Cc2ccncc2)NC(=O)CSC[C@@H](C(=O)N[C@@H](C)C(N)=O)NC(=O)[C@H](C(C)O)NC(=O)[C@H](C(C)C)NC(=O)[C@H](CC2CCCCC2)NC(=O)[C@H](CC(N)=O)NC(=O)[C@@H](CC(C)C)NC(=O)[C@H](Cc2ccc(CN)cc2)NC1=O` (stereo partly drawn) [Compound 2506] ({CH2CO}-[4Pal]YDWV[Bip][Ile(3ξ)][Phe(4-CH2NH2)][dL]N[Cha]V[Thr(3ξ)]CA-NH2; thioether N-14): 70.6 nM. In the case of `CCC(C)[C@@H]1NC(=O)[C@H](Cc2ccc(-c3ccccc3)cc2)NC(=O)[C@H](C(C)C)NC(=O)[C@H](Cc2c[nH]c3ccccc23)NC(=O)[C@H](CC(N)=O)NC(=O)[C@H](Cc2ccc(O)cc2)NC(=O)[C@H](CN)NC(=O)CSC[C@@H](C(=O)N[C@@H](C)C(N)=O)NC(=O)[C@H]([C@@H](C)O)NC(=O)[C@H](C(C)C)NC(=O)[C@H](CC(C)C)NC(=O)[C@H](CCN)NC(=O)[C@@H](CC(C)C)NC(=O)[C@H](CCCCN)NC1=O` (stereo partly drawn) [Compound 1091] ({CH2CO}-[Dap]YNWV[Bip][Ile(3ξ)]K[dL][Dab]LVTCA-NH2; thioether N-14), the IC50 under setting [1] turned out to be 21.8 nM. For the compound `Cc1cccc(C[C@@H]2NC(=O)[C@H](CC(=O)O)NC(=O)[C@H](Cc3ccc(OCC(=O)O)cc3)NC(=O)[C@H](CN)NC(=O)CSC[C@@H](C(=O)N[C@@H](C)C(N)=O)NC(=O)[C@H]([C@@H](C)O)NC(=O)[C@H](C(C)C)NC(=O)[C@H](CC3CCCCC3)NC(=O)[C@H](CCN)NC(=O)[C@@H](CC(C)C)NC(=O)[C@H](CCCN)NC(=O)[C@H](CCCNC(N)=O)NC(=O)[C@H](Cc3ccc(-c4ccccc4)cc3)NC(=O)[C@H](C(C)C)NC2=O)c1` [Compound 1208], under setting [1], the IC50 stood at 2.7 nM. For the compound `Cc1cccc(C[C@@H]2NC(=O)[C@H](CC(=O)O)NC(=O)[C@H](Cc3ccc(OCC(=O)O)cc3)NC(=O)[C@H](C(C)O)NC(=O)CSC[C@@H](C(N)=O)NC(=O)[C@H](C(C)O)NC(=O)[C@H](C(C)C)NC(=O)[C@H](CC3CCCCC3)NC(=O)[C@H](CCN)NC(=O)[C@@H](CC(C)C)NC(=O)[C@H](CCCN)NC(=O)[C@H](C(C)C)NC(=O)[C@H](Cc3ccc(-c4ccccc4)cc3)NC(=O)[C@H](C(C)C)NC2=O)c1` (stereo partly drawn) [Compound 2605] ({CH2CO}-[Thr(3ξ)]Y(Carboxymethyl)D[Phe(3-Me)]V[Bip]V[Orn][dL][Dab][Cha]V[Thr(3ξ)]C-NH2; thioether N-14), under setting [1], the IC50 was found to be 18.9 nM. As for `C#CCOc1ccc(C[C@@H]2NC(=O)[C@H](CN)NC(=O)CSC[C@@H](C(=O)N[C@@H](CCN=[N+]=[N-])C(N)=O)NC(=O)[C@H]([C@@H](C)O)NC(=O)[C@H](C(C)C)NC(=O)[C@H](CC3CCCCC3)NC(=O)[C@H](CCN)NC(=O)[C@@H](CC(C)C)NC(=O)[C@H](CCCN)NC(=O)[C@H](CCC(=O)O)NC(=O)[C@H](Cc3ccc(-c4ccccc4)cc3)NC(=O)[C@H](C(C)C)NC(=O)[C@H](Cc3c[nH]c4ccccc34)NC(=O)[C@H](CC(=O)O)NC2=O)cc1` [Compound 1536] ({CH2CO}-[Dap]Y(Propargyl)DWV[Bip]E[Orn][dL][Dab][Cha]VTC[Aha]-NH2; thioether N-14), the IC50 under setting [1] is 59.3 nM. For `CCCC[C@@H]1NC(=O)CSC[C@@H](C(=O)N[C@@H](CCN)C(N)=O)NC(=O)[C@H](CO)NC(=O)[C@H](C(C)(C)O)NC(=O)[C@H](CC2CCCCC2)NC(=O)[C@H](CCN)NC(=O)[C@@H](CC(C)C)NC(=O)[C@H](CCCN)NC(=O)[C@H](Cc2ccc(OCC(=O)O)cc2)NC(=O)[C@H](Cc2ccc(-c3ccccc3)cc2)NC(=O)[C@H](Cc2ccc(OCC(=O)O)cc2)NC(=O)[C@H](Cc2cccc(C)c2)NC(=O)[C@H](CC(=O)O)NC(=O)[C@H](Cc2ccc(OCC(=O)O)cc2)NC1=O` [Compound 2687] ({CH2CO}-[Nle]Y(Carboxymethyl)D[Phe(3-Me)]Y(Carboxymethyl)[Bip]Y(Carboxymethyl)[Orn][dL][Dab][Cha][Val(3-OH)]SC[Dab]-NH2; thioether N-14), the IC50 under setting [1] was 0.4 nM. Same read-out and setting: next, `CC(C)C[C@@H]1NC(=O)[C@H](Cc2c[nH]c3ccccc23)NC(=O)[C@H](CC(=O)O)NC(=O)[C@H](Cc2ccncc2)NC(=O)[C@H](Cc2ccc(OCC(=O)O)cc2)NC(=O)CSC[C@@H](C(=O)NCC(N)=O)NC(=O)[C@H](CO)NC(=O)[C@H](C(C)C)NC(=O)[C@H](CC2CCCCC2)NC(=O)[C@H](CCN)NC(=O)[C@@H](CC(C)C)NC(=O)[C@H](CCCN)NC(=O)[C@H](C(C)C)NC(=O)[C@H](Cc2ccc(-c3ccccc3)cc2)NC1=O` [Compound 1406] ({CH2CO}-Y(Carboxymethyl)[4Pal]DWL[Bip]V[Orn][dL][Dab][Cha]VSCG-NH2; thioether N-14): 15.9 nM. In turn, `CC[C@H](C)[C@@H]1NC(=O)[C@H](Cc2ccc(-c3ccccc3)cc2)NC(=O)[C@H](C(C)C)NC(=O)[C@H](Cc2cccc(C)c2)NC(=O)[C@H](CC(=O)O)NC(=O)[C@H](Cc2ccc(OCC(=O)O)cc2)NC(=O)[C@H](Cc2ccncc2)NC(=O)CSC[C@@H](C(=O)N[C@@H](C)C(N)=O)NC(=O)[C@H]([C@@H](C)O)NC(=O)[C@H](C(C)C)NC(=O)[C@H](CC(C)C)NC(=O)[C@H](CCN)NC(=O)[C@@H](CC(C)C)NC(=O)[C@H](CCCN)NC1=O` [Compound 1186] came in with an IC50 (Jurkat HPD1_PDL1 IC50, Jurkat-PD-1 cells) of 5.8 nM. For `CC(C)C[C@H]1NC(=O)[C@H](CCCN)NC(=O)[C@H](CCC(=O)O)NC(=O)[C@H](Cc2ccc(-c3ccccc3)cc2)NC(=O)[C@H](C(C)C)NC(=O)[C@H](Cc2cccc3ccccc23)NC(=O)[C@H](CC(=O)O)NC(=O)[C@H](Cc2ccc(OCC(=O)O)cc2)NC(=O)[C@H](CN)NC(=O)CSC[C@@H](C(=O)N[C@@H](C)C(N)=O)NC(=O)[C@H]([C@@H](C)O)NC(=O)[C@H](C(C)C)NC(=O)[C@H](CC2CCCCC2)NC(=O)[C@H](CCN)NC1=O` [Compound 2146] ({CH2CO}-[Dap]Y(Carboxymethyl)D[1Nal]V[Bip]E[Orn][dL][Dab][Cha]VTCA-NH2; thioether N-14), the IC50 under setting [1] was found to be 10.6 nM.

As for `CC(C)[C@@H]1NC(=O)[C@H](Cc2c[nH]c3ccccc23)NC(=O)[C@H](CC(=O)O)NC(=O)[C@H](Cc2ccc(C(=O)O)cc2)NC(=O)[C@H](Cc2ccc(OCC(=O)O)cc2)NC(=O)CSC[C@@H](C(=O)N[C@@H](C)C(N)=O)NC(=O)[C@H]([C@@H](C)O)NC(=O)[C@H](C(C)C)NC(=O)[C@H](CC2CCCCC2)NC(=O)[C@H](CCN)NC(=O)[C@@H](Cc2ccc(O)cc2)NC(=O)[C@H](CCCN)NC(=O)[C@H](CCC(=O)O)NC(=O)[C@H](Cc2ccc(-c3ccccc3)cc2)NC1=O` [Compound 1449] ({CH2CO}-Y(Carboxymethyl)[Phe(4-COOH)]DWV[Bip]E[Orn][dY][Dab][Cha]VTCA-NH2; thioether N-14), under setting [1], the IC50 amounted to 32.9 nM. Regarding `CC(C)[C@@H]1NC(=O)[C@H](Cc2c[nH]c3ccccc23)NC(=O)[C@H](CC(=O)O)NC(=O)[C@H](Cc2ccc(O)cc2)NC(=O)[C@H](CC(N)=O)NC(=O)CSC[C@@H](C(=O)N[C@@H](C)C(N)=O)NC(=O)[C@H]([C@@H](C)O)NC(=O)[C@H](C(C)C)NC(=O)[C@H](CC2CCCCC2)NC(=O)[C@H](CCN)NC(=O)[C@@H](CC2CCCCC2)NC(=O)[C@H](CCCN)NC(=O)[C@H](CCCNC(N)=O)NC(=O)[C@H](Cc2ccc(-c3ccccc3)cc2)NC1=O` [Compound 1647] ({CH2CO}-NYDWV[Bip][Cit][Orn][dCha][Dab][Cha]VTCA-NH2; thioether N-14), the IC50 under setting [1] is 50.9 nM. `CC[C@H](C)[C@@H]1NC(=O)[C@H](Cc2ccc(-c3ccccc3)cc2)NC(=O)[C@H](C(C)C)NC(=O)[C@H](Cc2c[nH]c3ccccc23)NC(=O)[C@H](CC(=O)O)NC(=O)[C@H](Cc2ccc(OCC(=O)O)cc2)NC(=O)[C@H](Cc2ccc(OCC(=O)O)cc2)NC(=O)CSC[C@@H](C(=O)N[C@@H](C)C(N)=O)NC(=O)[C@H]([C@@H](C)O)NC(=O)[C@H](C(C)C)NC(=O)[C@H](Cc2cccc(F)c2)NC(=O)[C@H](CCN)NC(=O)[C@@H](CC(C)C)NC(=O)[C@H](CCCN)NC1=O` [Compound 1671] ({CH2CO}-Y(Carboxymethyl)Y(Carboxymethyl)DWV[Bip]I[Orn][dL][Dab][Phe(3-F)]VTCA-NH2; thioether N-14): the IC50 under setting [1] came out at 22.9 nM. On to `C#CC[C@H](NC(=O)[C@H](CCC(=O)O)NC(=O)[C@@H]1CSCC(=O)N[C@@H](CN)C(=O)N[C@@H](Cc2ccc(OCC(=O)O)cc2)C(=O)N[C@@H](CC(=O)O)C(=O)N[C@@H](Cc2cccc(C)c2)C(=O)N[C@@H](Cc2ccc(OCC(=O)O)cc2)C(=O)N[C@@H](Cc2ccc(-c3ccccc3)cc2)C(=O)N[C@@H](Cc2ccc(OCC(=O)O)cc2)C(=O)N[C@@H](CCCN)C(=O)N[C@H](CC(C)C)C(=O)N[C@@H](CCN)C(=O)N[C@@H](CC2CCCCC2)C(=O)N[C@@H](C(C)C)C(=O)N[C@@H]([C@@H](C)O)C(=O)N1)C(N)=O` [Compound 1803] ({CH2CO}-[Dap]Y(Carboxymethyl)D[Phe(3-Me)]Y(Carboxymethyl)[Bip]Y(Carboxymethyl)[Orn][dL][Dab][Cha]VTCE[Pra]-NH2; thioether N-14), for which the IC50 under setting [1] came to 24.7 nM.

One may read the IC50 as the midpoint of a concentration-inhibition curve.
